Data published in PubChem BioAssay AID330 (DTP/NCI, 2004).
Where “and” joins values, the source holds several entries; their conditions need not be identical. Equal values may be shown once. Inconclusive results and toxic doses are left out. Rule for the calls: active = survival T/C of 150% or more; inactive = T/C below 125% in these data.

Test system: P388 leukemia ip, CD2F1 mice, survival T/C
Assay: NCI In Vivo Anticancer Drug Screen. Data for tumor model P388 Leukemia (intraperitoneal) in CD2F1 (CDF1) mice
Details: endpoint: median survival time, higher = longer survival
Method in brief: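 Mice carrying the transplanted tumor received test compound or vehicle. Survival was recorded in each group, and the value is the treated-group measurement divided by that of the vehicle-treated control group.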

[1] = dose: 50.0 mg/kg/injection, schedule: Q01DX009 (ip), vehicle: Klucel (hydroxypropylcellulose) (HPC)
[2] = dose: 100.0 mg/kg/injection, schedule: Q01DX009 (ip), vehicle: Klucel (hydroxypropylcellulose) (HPC)
[3] = dose: 200.0 mg/kg/injection, schedule: Q01DX009 (ip), vehicle: Klucel (hydroxypropylcellulose) (HPC)
[4] = dose: 50.0 mg/kg/injection, schedule: Q01DX005 (ip), vehicle: saline with Tween-80
[5] = dose: 100.0 mg/kg/injection, schedule: Q01DX005 (ip), vehicle: saline with Tween-80
[6] = dose: 200.0 mg/kg/injection, schedule: Q01DX005 (ip), vehicle: saline with Tween-80
[7] = dose: 50.0 mg/kg/injection, schedule: Q04DX003 (ip), vehicle: saline with Tween-80
[8] = dose: 100.0 mg/kg/injection, schedule: Q04DX003 (ip), vehicle: saline with Tween-80
[9] = dose: 200.0 mg/kg/injection, schedule: Q04DX003 (ip), vehicle: saline with Tween-80
[10] = dose: 50.0 mg/kg/injection, schedule: Q01DX009 (ip), vehicle: saline with Tween-80
[11] = dose: 100.0 mg/kg/injection, schedule: Q01DX009 (ip), vehicle: saline with Tween-80
[12] = dose: 60.0 mg/kg/injection, schedule: Q01DX005 (ip), vehicle: saline with Tween-80
[13] = dose: 120.0 mg/kg/injection, schedule: Q01DX005 (ip), vehicle: saline with Tween-80
[14] = dose: 240.0 mg/kg/injection, schedule: Q01DX005 (ip), vehicle: saline with Tween-80
[15] = dose: 50.0 mg/kg/injection, schedule: Q01DX005 (ip), vehicle: Klucel (hydroxypropylcellulose) (HPC)
[16] = dose: 100.0 mg/kg/injection, schedule: Q01DX005 (ip), vehicle: Klucel (hydroxypropylcellulose) (HPC)
[17] = dose: 200.0 mg/kg/injection, schedule: Q01DX005 (ip), vehicle: Klucel (hydroxypropylcellulose) (HPC)
[18] = dose: 60.0 mg/kg/injection, schedule: Q01DX005 (ip), vehicle: Klucel (hydroxypropylcellulose) (HPC)
[19] = dose: 120.0 mg/kg/injection, schedule: Q01DX005 (ip), vehicle: Klucel (hydroxypropylcellulose) (HPC)

Measured: T/C

CCCCCCCCCCCCCCCCOc1cccc(/C(=N/NS(C)(=O)=O)N2CCCCC2)c1
inactive: [1] 89 % of control | [2] 92 % of control | [3] 91 % of control

S=C1N(c2ccc(Br)cc2)C2=Nc3ccccc3SC(=C2N=Nc2ccccc2Cl)N1c1ccc(Cl)cc1
inactive: [4] 97 % of control | [5] 93 % of control | [6] 93 % of control

CCc1cccc(CC)c1N1C(=O)C2=C(SCCCS2)C1=O
inactive: dose: 50.0 mg/kg/injection, schedule: Q01DX009 (ip), vehicle: saline 98 % of control | dose: 100.0 mg/kg/injection, schedule: Q01DX009 (ip), vehicle: saline 102 % of control | dose: 200.0 mg/kg/injection, schedule: Q01DX009 (ip), vehicle: saline 107 % of control

CCOC(=O)C(=CCBr)C(=O)OCC
inactive: dose: 1.56 mg/kg/injection, schedule: Q01DX009 (ip), vehicle: other 105 % of control | dose: 3.13 mg/kg/injection, schedule: Q01DX009 (ip), vehicle: other 110 % of control | dose: 6.25 mg/kg/injection, schedule: Q01DX009 (ip), vehicle: other 118 % of control | dose: 12.5 mg/kg/injection, schedule: Q01DX009 (ip), vehicle: other 106 % of control | dose: 25.0 mg/kg/injection, schedule: Q01DX009 (ip), vehicle: other 102 % of control

COc1cc2c(N)nc(N3CCN(C(=O)OCC(C)(C)O)CC3)nc2c(OC)c1OC
inactive: dose: 50.0 mg/kg/injection, schedule: Q01DX005 (ip), vehicle: suspension in saline 95 % of control | dose: 100.0 mg/kg/injection, schedule: Q01DX005 (ip), vehicle: suspension in saline 100 % of control | dose: 200.0 mg/kg/injection, schedule: Q01DX005 (ip), vehicle: suspension in saline 113 % of control

COc1ccccc1-c1cn(O)c2nc(=N)nc(N)c-2n1
inactive: [7] 91 % of control | [8] 89 % of control | [9] 99 % of control | dose: 400.0 mg/kg/injection, schedule: Q04DX003 (ip), vehicle: saline with Tween-80 107 % of control

CSCc1cc(Cl)ccc1N
inactive: [10] 97 % of control | [11] 97 % of control | dose: 200.0 mg/kg/injection, schedule: Q01DX009 (ip), vehicle: saline with Tween-80 97 % of control

CCOC(=O)C1=C(c2ccccc2)C2OC1C(COC(=O)NC)=C2COC(=O)NC (centres undefined)
inactive: dose: 12.5 mg/kg/injection, schedule: Q01DX009 (ip), vehicle: distilled water + Tween-80 96 % of control | dose: 25.0 mg/kg/injection, schedule: Q01DX009 (ip), vehicle: distilled water + Tween-80 93 % of control | dose: 50.0 mg/kg/injection, schedule: Q01DX009 (ip), vehicle: distilled water + Tween-80 87 % of control | dose: 100.0 mg/kg/injection, schedule: Q01DX009 (ip), vehicle: distilled water + Tween-80 87 % of control | dose: 200.0 mg/kg/injection, schedule: Q01DX009 (ip), vehicle: distilled water + Tween-80 99 % of control

Cc1c2c(c(C)c3c1C(=O)c1cc4c(cc1C3=O)OCO4)OC(C)O2
inactive: [12] 89 % of control | [13] 89 % of control | [14] 91 % of control

CC(=O)N(c1ccccc1)C1CCC2(C)C(=CCC3C2CCC2(C)C(C(C)CCCC(C)C)CCC32)C1 (centres undefined)
inactive: dose: 100.0 mg/kg/injection, schedule: Q04DX003 (sc), vehicle: steriod suspending solution 100 % of control | dose: 200.0 mg/kg/injection, schedule: Q04DX003 (sc), vehicle: steriod suspending solution 100 % of control | dose: 400.0 mg/kg/injection, schedule: Q04DX003 (sc), vehicle: steriod suspending solution 104 % of control

COc1ccc(C=NC#N)cc1
inactive: [1] 101 % of control | [2] 93 % of control | [3] 88 % of control

Cc1cc(O)c(Br)cc1O
inactive: [15] 100 % of control | [16] 97 % of control | [17] 97 % of control

O=[N+]([O-])c1cc2c(c([N+](=O)[O-])c1)OC(C(Cl)(Cl)Cl)OC2C(Cl)(Cl)Cl (centres undefined)
inactive: [15] 107 % of control | [16] 103 % of control | [17] 117 % of control

O=C(O)c1ccc(NC(=O)C(Cl)Cl)cc1
inactive: [15] 97 % of control | [16] 102 % of control | [17] 100 % of control

COc1ccc(-c2nn(C)c3c2C(=O)CCC3)cc1OC
inactive: dose: 100.0 mg/kg/injection, schedule: Q04DX003 (ip), vehicle: Klucel (hydroxypropylcellulose) (HPC) 94 % of control | dose: 200.0 mg/kg/injection, schedule: Q04DX003 (ip), vehicle: Klucel (hydroxypropylcellulose) (HPC) 99 % of control

CC12C=CC(O1)C1C(=O)OC(=O)C12 (centres undefined)
inactive: [12] 101 % of control | [13] 90 % of control

Cc1ccc(N2C(=O)CCSC2=S)cc1Cl
inactive: [1] 115 % of control | dose: 50.0 mg/kg/injection, schedule: Q01DX009 (ip), vehicle: suspension in saline 87 % of control | [2] 114 % of control and 122 % of control | dose: 100.0 mg/kg/injection, schedule: Q01DX009 (ip), vehicle: suspension in saline 90 % of control | [3] 86 % of control | dose: 200.0 mg/kg/injection, schedule: Q01DX009 (ip), vehicle: suspension in saline 99 % of control

COC(=O)C(C/C(=C/NC(=O)c1ccccc1)NC(=O)c1ccccc1)NC(=O)c1ccccc1 (centres undefined)
inactive: [4] 98 % of control | [5] 98 % of control | [6] 100 % of control

O=C1OC2(CCCC2)OC(=O)C1=Cc1ccc([N+](=O)[O-])s1
inactive: [10] 115 % of control | [11] 114 % of control

CCNc1ccc(F)cc1[N+](=O)[O-]
inactive: [7] 100 % of control | [8] 100 % of control | [9] 86 % of control

O=C(Nc1ccc(Cl)c(Cl)c1)OCc1ccco1
inactive: [18] 105 % of control | [19] 105 % of control

CC(=O)[O][Sn]([CH3])([CH3])[c]1ccccc1
inactive: dose: 1.56 mg/kg/injection, schedule: Q01DX009 (ip), vehicle: saline 98 % of control and 104 % of control | dose: 3.12 mg/kg/injection, schedule: Q01DX009 (ip), vehicle: saline 98 % of control and 110 % of control | dose: 6.25 mg/kg/injection, schedule: Q01DX009 (ip), vehicle: saline 98 % of control and 117 % of control and 96 % of control | dose: 12.5 mg/kg/injection, schedule: Q01DX009 (ip), vehicle: saline 104 % of control and 120 % of control

COc1ccc(N(CN2C(=O)CCC2=O)CS(=O)(=O)c2ccc(C)cc2)cc1
inactive: [18] 100 % of control | [19] 100 % of control | dose: 240.0 mg/kg/injection, schedule: Q01DX005 (ip), vehicle: Klucel (hydroxypropylcellulose) (HPC) 100 % of control

O=C(NCCCCNCCCNC(=O)c1ccc([N+](=O)[O-])cc1)c1ccc([N+](=O)[O-])cc1
inactive: [12] 97 % of control | [13] 92 % of control | [14] 98 % of control

CCOC(=O)Nc1c(CC(C)O)n[nH]c1C (centres undefined)
inactive: [4] 110 % of control | [5] 100 % of control | [6] 96 % of control

FC1(F)SC(F)(F)S1
inactive: [15] 108 % of control | [16] 108 % of control | [17] 108 % of control

Cc1nc([N+](=O)[O-])c(Sc2nncc(-c3ccccc3)n2)n1C
inactive: [15] 111 % of control | [16] 104 % of control

CC(=O)NC1C(Nc2ccc(S(=O)(=O)NC(C)=O)cc2)OC(CO)C(O)C1O (centres undefined)
inactive: dose: 50.0 mg/kg/injection, schedule: Q01DX005 (ip), vehicle: saline 100 % of control | dose: 100.0 mg/kg/injection, schedule: Q01DX005 (ip), vehicle: saline 97 % of control | dose: 200.0 mg/kg/injection, schedule: Q01DX005 (ip), vehicle: saline 97 % of control

COc1ccccc1/C=C\C1=CC(=O)CC(c2ccccc2OC)C1C (centres undefined)
inactive: dose: 50.0 mg/kg/injection, schedule: Q01DX001 (ip), vehicle: Klucel (hydroxypropylcellulose) (HPC) 104 % of control | dose: 100.0 mg/kg/injection, schedule: Q01DX001 (ip), vehicle: Klucel (hydroxypropylcellulose) (HPC) 100 % of control | dose: 200.0 mg/kg/injection, schedule: Q01DX001 (ip), vehicle: Klucel (hydroxypropylcellulose) (HPC) 91 % of control

CC1(C)c2ccccc2-c2nc3ccccc3c(N)c2C1O (centres undefined)
inactive: [15] 104 % of control | [16] 100 % of control | [17] 104 % of control
